Experimental data as given in patent US5935954A, “Compounds with improved multi-drug resistance activity” (Vertex Pharmaceuticals Incorporated, priority 1997, dated 1999).

Biological target: FKBP12 (Homo sapiens, UniProt P62942)
Assay: FKBP12 binding assay (inhibition of rotomase activity)
Format: biochemical
Conditions: apparent Ki
From the text: Preferably, the assay measures inhibition of FKBP12 rotomase activity. Such an assay has also been described by M. W. Harding et al., supra and by J. J. Siekierka et al., supra. In this assay the isomerization of an artificial substrate--N-succinyl-Ala-Ala-Pro-Phe-p-nitroanilide--is followed spectrophotometrically. The assay includes the cis form of the substrate, FKBP12, the inhibitor and chymotrypsin. Chymotrypsin is able to cleave p-nitroanilide from the trans form of the substrate, but not the cis form. Release of p-nitroanilide is measured.
The inhibition of FKBP rotomase activity by the preferred FKBP12 binding compounds present in the compositions of this invention was assayed. In this assay various quantities of FKBP12 binding compound (0nM-10 μM) were added to cis-N-succinyl-Ala-Ala-Pro-Phe-p-nitroanilide in the presence of FKBP12 and chymotrypsin. FKBP12 converts the cis form of the substrate to the trans form. This allows chymotrypsin to cleave p-nitroanilide from the substrate. Release of p-nitroanilide was measured spectrophotometrically. This assay allowed me to measure the change in the first order rate constant of the rotomase activity as a function of FKBP12 binding compound concentration and yielded an estimate of apparent Ki.

FKBP12, sequence (P62942 whole entry, species assumed): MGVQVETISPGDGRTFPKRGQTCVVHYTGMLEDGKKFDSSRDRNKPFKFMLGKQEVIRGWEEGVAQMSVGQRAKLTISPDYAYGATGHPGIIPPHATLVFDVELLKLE

Ki	Structure (SMILES)
745 nM	C=CCC/C=C(\c1ccc([C@H](CCN2CCOCC2)OC(=O)[C@@H]2CCCCN2C(=O)C(=O)CC(C)C)s1)C1CCOCC1 [Compound 69]
4000 nM	COc1cc(C(=O)C(=O)N2CCCC[C@H]2C(=O)O[C@@H](CCCc2ccccc2)c2cccc(/C(=C\CCc3ccccc3)c3cccnc3)c2)cc(OC)c1OC [Compound 5]
> 5000 nM	CCOc1ccc(OCC)c(-c2cccc(C(CCCc3ccccc3)OC(=O)[C@@H]3CCCCN3C(=O)C(=O)c3cc(OC)c(OC)c(OC)c3)c2)c1 (stereo partly drawn) [Compound 4]
57 nM	COC/C=C(\c1cncc([C@H](OC(=O)[C@@H]2CCCCN2C(=O)C(=O)CC(C)C)/C(C)=C/[C@H]2CC[C@H](O)CC2)c1)C1CCCCC1 [Compound 60]
1100 nM	CCC/C(=C/COC)c1cncc(C(CCN2CCOCC2)OC(=O)[C@@H]2CCCCN2C(=O)C(=O)[C@@H]2C[C@H](OCC)CC[C@H]2C)c1 (stereo partly drawn) [Compound 125]
70 nM	CCC/C=C(/c1ccc(C)cc1)c1cncc([C@@H](OC(=O)[C@@H]2CCCCN2C(=O)C(=O)c2ccc(F)cc2)/C(C)=C/[C@H]2CC[C@H](O)CC2)c1 [Compound 38]
5.8 nM	CCOc1ccccc1-c1cncc([C@@H](CCCc2ccccc2)OC(=O)[C@@H]2CCCCN2C(=O)C(=O)c2ccc(OC)c(OC)c2)c1 [Compound 20]
16 nM	CCOc1ccc(OCC)c(-c2cncc([C@@H](CCCc3ccccc3)OC(=O)[C@@H]3CCCCN3C(=O)C(=O)c3cc(OC)c(OC)c(OC)c3)c2)c1 [Compound 10]
7 nM	COc1cc(C(=O)C(=O)N2CCCC[C@H]2C(=O)O[C@H](CCCc2ccccc2)c2cccc(/C(=C\CCc3ccccc3)c3ccc[n+]([O-])c3)c2)cc(OC)c1OC [Compound 9]
41 nM	CCC/C=C(\c1cncc([C@@H](CCN2CCOCC2)OC(=O)[C@@H]2CCCCN2C(=O)C(=O)[C@@H]2CCCC[C@H]2C)c1)C(C)C [Compound 128]
30 nM	COc1cc(C(=O)C(=O)N2CCCC[C@H]2C(=O)O[C@@H](CCCc2ccccc2)c2cncc(-c3c(OC)cccc3OC)c2)cc(OC)c1OC [Compound 25]
45 nM	C=CCC/C=C(\c1ccc([C@@H](CCN2CCOCC2)OC(=O)[C@@H]2CCCCN2C(=O)C(=O)C(C)(C)C)s1)C1CCOCC1 [Compound 70]
7 nM	CCOc1ccc(OCC)c(-c2cncc([C@@H](CCCc3ccccc3)OC(=O)[C@@H]3CCCCN3C(=O)C(=O)c3ccc(OC)c(OC)c3)c2)c1 [Compound 11]
12 nM	COc1cc(C(=O)C(=O)N2CCCC[C@H]2C(=O)O[C@@H](/C(C)=C/[C@H]2CC[C@H](O)CC2)c2cncc(-c3c(OC)cccc3OC)c2)cc(OC)c1OC [Compound 33]
24 nM	COc1cc(C(=O)C(=O)N2CCCC[C@H]2C(=O)O[C@H](CCCc2ccccc2)c2cccc(/C(=C\CCc3ccccc3)c3cccnc3)c2)cc(OC)c1OC [Compound 6]
380 nM	CCCC/C=C(/c1cccnc1)c1cccc([C@H](CCN2CCOCC2)OC(=O)[C@@H]2CCCCN2C(=O)C(=O)c2cc(OC)c(OC)c(OC)c2)c1 [Compound 35]
> 10000 nM	COCc1cccc(COC)c1-c1cncc([C@H](OC(=O)[C@@H]2CCCCN2C(=O)C(=O)C(C)(C)COC)/C(C)=C/[C@H]2CC[C@H](O)CC2)c1 [Compound 51]
500 nM	C=CCC/C=C(/c1cccnc1)c1ccc([C@H](CCN2CCOCC2)OC(=O)[C@@H]2CCCCN2C(=O)C(=O)c2cc(COC)ccc2C)s1 [Compound 101]
340 nM	CCOCc1cccc(COCC)c1-c1csc([C@H](CCN2CCOCC2)OC(=O)[C@@H]2CCCCN2C(=O)C(=O)C(C)(C)C)c1 [Compound 64]
90 nM	CCOc1ccccc1-c1cncc([C@H](CCCc2ccccc2)OC(=O)[C@@H]2CCCCN2C(=O)C(=O)c2ccc(OC)c(OC)c2)c1 [Compound 21]
85 nM	CCCCc1ccc(C)n1-c1cccc([C@@H](CCN2CCOCC2)OC(=O)[C@@H]2CCCCN2C(=O)C(=O)[C@@H]2C[C@H](OCC)CC[C@H]2C)c1 [Compound 121]
2000 nM	CCOCc1cccc(COCC)c1-c1ccc([C@H](CCN2CCOCC2)OC(=O)[C@@H]2CCCCN2C(=O)C(=O)CC(C)C)s1 [Compound 84]
270 nM	CCOCc1cccc(COCC)c1-c1cncc(C(OC(=O)[C@@H]2CCCCN2C(=O)C(=O)C(C)(C)C)/C(C)=C/c2ccncc2)c1 (stereo partly drawn) [Compound 67]
44 nM	COC/C=C(\c1cncc([C@@H](CCN2CCOCC2)OC(=O)[C@@H]2CCCCN2C(=O)C(=O)C(C)(C)C(C)C)c1)C(C)C [Compound 115]
718 nM	CCOCc1cccc(COCC)c1-c1cncc([C@@H](CCN2CCOCC2)OC(=O)[C@@H]2CCCCN2C(=O)C(=O)CC(C)C)c1 [Compound 73]
2100 nM	CCOCc1cccc(COCC)c1-c1cncc([C@H](CCN2CCOCC2)OC(=O)[C@@H]2CCCCN2C(=O)C(=O)CC(C)C)c1 [Compound 77]

Ki	Structure (SMILES)
5 nM	COc1ccc(C(=O)C(=O)N2CCCC[C@H]2C(=O)O[C@H](CCCc2ccccc2)c2cncc(-c3ccccc3OC)c2)cc1OC [Compound 13]
30 nM	CCOc1ccc(OCC)c(-c2cncc([C@H](CCCc3ccccc3)OC(=O)[C@@H]3CCCCN3C(=O)C(=O)c3ccc(OC)c(OC)c3)c2)c1 [Compound 12]
2500 nM	CCCOc1ccc(OCCC)c(-c2cncc([C@H](CCCc3ccccc3)OC(=O)[C@@H]3CCCCN3C(=O)C(=O)c3cc(OC)c(OC)c(OC)c3)c2)c1 [Compound 23]
3000 nM	CCCCc1ccc(C)n1-c1cccc([C@@H](CCN2CCOCC2)OC(=O)[C@@H]2CCCCN2C(=O)C(=O)[C@@H]2C[C@H](C(C)C)CC[C@H]2C)c1 [Compound 126]
45 nM	CCC/C=C(/c1ccc(C)cc1)c1cncc([C@H](OC(=O)[C@@H]2CCCCN2C(=O)C(=O)c2ccc(F)cc2)/C(C)=C/[C@H]2CC[C@H](O)CC2)c1 [Compound 39]
172 nM	CCC/C(=C/COC)c1cncc([C@H](CCN2CCOCC2)OC(=O)[C@@H]2CCCCN2C(=O)C(=O)C(C)(C)C(C)C)c1 [Compound 114]
44 nM	CCOCc1cccc(COCC)c1-c1ccc([C@@H](CCN2CCOCC2)OC(=O)[C@@H]2CCCCN2C(=O)C(=O)C(C)(C)C(C)C)s1 [Compound 93]
> 10000 nM	CCOc1ccc(OCC)c(-c2cccc([C@H](CCCc3ccccc3)OC(=O)[C@@H]3CCCCN3C(=O)C(=O)c3cc(OC)c(OC)c(OC)c3)c2)c1 [Compound 7]
100 nM	CCC/C=C(\c1cncc([C@H](OC(=O)[C@@H]2CCCCN2C(=O)C(=O)c2ccco2)/C(C)=C/[C@H]2CC[C@H](O)CC2)c1)C1CCCCC1 [Compound 46]
< 1 nM	CCCC/C=C(/c1cccnc1)c1cccc([C@@H](CCCc2ccccc2)OC(=O)[C@@H]2CCCCN2C(=O)C(=O)c2cc(OC)c(OC)c(OC)c2)c1 [Compound 37]
77 nM	CCOCc1cccc(COCC)c1-c1cncc([C@@H](CCN2CCOCC2)OC(=O)[C@@H]2CCCCN2C(=O)C(=O)C2(C)CCCCC2)c1 [Compound 78]
225 nM	C=CCC/C=C(/c1cccnc1)c1ccc([C@H](OC(=O)[C@@H]2CCCCN2C(=O)C(=O)CC(C)C)/C(C)=C/C2CCN(C)CC2)s1 [Compound 72]
150 nM	CCC/C(=C/COC)c1cncc([C@@H](CCN2CCOCC2)OC(=O)[C@@H]2CCCCN2C(=O)C(=O)[C@@H]2CCCC[C@H]2C)c1 [Compound 117]
490 nM	CCOCc1cc2ccccc2n1-c1cccc([C@H](OC(=O)[C@@H]2CCCCN2C(=O)C(=O)C2(O)CCOCC2)/C(C)=C/[C@H]2CC[C@H](O)CC2)c1 [Compound 65]
6 nM	CCCC/C=C(/c1cccnc1)c1cccc([C@@H](CCN2CCOCC2)OC(=O)[C@@H]2CCCCN2C(=O)C(=O)c2cc(OC)c(OC)c(OC)c2)c1 [Compound 34]
1000 nM	COC/C=C(\c1cncc([C@@H](CCN2CCOCC2)OC(=O)[C@@H]2CCCCN2C(=O)C(=O)[C@@H]2C[C@H](C(C)(C)OC)CC[C@H]2C)c1)C(C)C [Compound 124]
14 nM	C=CCC/C=C(\c1ccc([C@@H](CCN2CCOCC2)OC(=O)[C@@H]2CCCCN2C(=O)C(=O)C2(O)CCCCC2)s1)C1CCOCC1 [Compound 95]
14 nM	CCOCc1cc2ccccc2n1-c1cccc([C@@H](CCN2CCOCC2)OC(=O)[C@@H]2CCCCN2C(=O)C(=O)C2(C)CCCCC2)c1 [Compound 86]
> 5000 nM	CCOCc1cccc(COCC)c1-c1cncc(C(OC(=O)[C@@H]2CCCCN2C(=O)C(=O)C2CCOCC2)/C(C)=C/c2ccncc2)c1 (stereo partly drawn) [Compound 68]
120 nM	COC/C=C(\c1cncc([C@@H](OC(=O)[C@@H]2CCCCN2C(=O)C(=O)c2ccco2)/C(C)=C/[C@H]2CC[C@H](O)CC2)c1)C1CCCCC1 [Compound 48]
930 nM	CCOCc1cc2ccccc2n1-c1cccc([C@H](OC(=O)[C@@H]2CCCCN2C(=O)C(=O)C2(O)CCOCC2)/C(C)=C/[C@H]2CC[C@H](O)CC2)c1 [Compound 57]
315 nM	CCC/C=C(/C)c1cncc([C@@H](CCN2CCOCC2)OC(=O)[C@@H]2CCCCN2C(=O)C(=O)[C@@H]2C[C@H](C(C)(C)OC)CC[C@H]2C)c1 [Compound 133]
230 nM	CCC/C=C(\c1cncc([C@@H](OC(=O)[C@@H]2CCCCN2C(=O)C(=O)c2ccco2)/C(C)=C/[C@H]2CC[C@H](O)CC2)c1)C1CCCCC1 [Compound 45]
189 nM	CCOCc1cccc(COCC)c1-c1cncc([C@@H](CCN2CCOCC2)OC(=O)[C@@H]2CCCCN2C(=O)C(=O)C(C)(C)C)c1 [Compound 81]
67 nM	COCc1cccc(COC)c1-c1cncc([C@H](OC(=O)[C@@H]2CCCCN2C(=O)C(=O)c2ccco2)/C(C)=C/[C@H]2CC[C@H](O)CC2)c1 [Compound 41]
